The source of these data is publication PMC3641821 (2011).

Assay [1] concerns D4, d[5'-A3G5C5T3-3'] (DNA, duplex) AAAGGGGGCCCCCTTT
The assay can be described thus: ITC. As to conditions: 100 mM KCl; 10 mM sodium cacodylate, 0.5 mM EDTA, pH 6.8, 25 °C.

Assay [2] relates to D1, d[5'-G3G5C5C3-3'] (DNA, duplex) GGGGGGGGCCCCCCCC
In words: ITC. To be noted: 100 mM KCl; 10 mM sodium cacodylate, 0.5 mM EDTA, pH 6.8, 25 °C.

The test system of assay [3] is D3, d[5'-G3A5T5C3-3'] (DNA, duplex) GGGAAAAATTTTTCCC
The assay can be described thus: ITC. As to conditions: 100 mM KCl; 10 mM sodium cacodylate, 0.5 mM EDTA, pH 6.8, 25 °C; site 1 of 2.

The subject of assay [4] is D9, d[5'-G3(AT)5C3-3'] (DNA, duplex) GGGATATATATATCCC
In words: ITC. As to conditions: 100 mM KCl; 10 mM sodium cacodylate, 0.5 mM EDTA, pH 6.8, 25 °C.

The subject of assay [5] is D2, d[5'-G2A6T6C2-3'] (DNA, duplex) GGAAAAAATTTTTTCC
In words: ITC. To be noted: 100 mM KCl; 10 mM sodium cacodylate, 0.5 mM EDTA, pH 6.8, 25 °C; site 1 of 2.

Assay [6] deals with D11, d[5'-(AT)8-3'] (DNA, duplex) ATATATATATATATAT
In words: ITC. As to conditions: 100 mM KCl; 10 mM sodium cacodylate, 0.5 mM EDTA, pH 6.8, 25 °C.

Assay [7] concerns D5, d[5'-A12-x-T12-3'] (intramolecular duplex) (DNA, hairpin, x = hexaethylene glycol linker between positions 12 and 13) AAAAAAAAAAAATTTTTTTTTTTT
In words: ITC. To be noted: 100 mM KCl; 10 mM sodium cacodylate, 0.5 mM EDTA, pH 6.8, 25 °C; site 1 of 2.

The test system of assay [8] is D8, d[5'-A2GAG2AGAGA2GAGAG2AGA2-3'] 22-mer duplex (DNA, duplex) AAGAGGAGAGAAGAGAGGAGAA/TTCTCCTCTCTTCTCTCCTCTT
The assay can be described thus: ITC. As to conditions: 100 mM KCl; 10 mM sodium cacodylate, 0.5 mM EDTA, pH 6.8, 25 °C; site 1 of 2.

For assay [9], the system named is D6, d[5'-A30T30-3'] (DNA, duplex) AAAAAAAAAAAAAAAAAAAAAAAAAAAAAATTTTTTTTTTTTTTTTTTTTTTTTTTTTTT
The assay can be described thus: ITC. To be noted: 100 mM KCl; 10 mM sodium cacodylate, 0.5 mM EDTA, pH 6.8, 25 °C; site 1 of 2.

The test system of assay [10] is poly(dA.dT)2 (DNA, polymer) AT. The assay can be described thus: UV melting. As to conditions: K+ 100 or 150 mM; Na+ 10 mM (cacodylate); rbd 10; per base.

On to `NC[C@@H]1O[C@H](O[C@H]2[C@@H](O)[C@H](O[C@@H]3[C@@H](O)[C@H](N)C[C@H](N)[C@H]3O[C@H]3O[C@H](CN)[C@@H](O)[C@H](O)[C@H]3N)O[C@@H]2CO)[C@H](N)[C@@H](O)[C@@H]1O`, for which the values for the K1 in assay [1] and in assay [2] were 2.02 ± 0.20 × 10^5 M^-1 and 3.80 ± 0.18 × 10^5 M^-1, respectively.
As for `NC[C@@H]1O[C@H](O[C@H]2[C@@H](O)[C@H](O[C@@H]3[C@@H](O)[C@H](N)C[C@H](N)[C@H]3O[C@H]3O[C@H](CN)[C@@H](O)[C@H](O)[C@H]3N)O[C@@H]2CSCCNC(=S)NCCOCCOCCNC(=S)NCCSC[C@H]2O[C@@H](O[C@@H]3[C@@H](O)[C@H](N)C[C@H](N)[C@H]3O[C@H]3O[C@H](CN)[C@@H](O)[C@H](O)[C@H]3N)[C@H](O)[C@@H]2O[C@H]2O[C@@H](CN)[C@@H](O)[C@H](O)[C@H]2N)[C@H](N)[C@@H](O)[C@@H]1O`, the K1 in assay [3] is given as 25.3 ± 10.0 × 10^7 M^-1; in assay [4], 0.54 ± 0.15 × 10^7 M^-1; in [5], 12.9 ± 3.4 × 10^7 M^-1; in [6], 5.88 ± 2.90 × 10^7 M^-1; in assay [7] it was 28.2 ± 12.0 × 10^7 M^-1; in assay [1], 7.75 ± 1.70 × 10^5 M^-1. Besides, the K1 was 1.78 ± 1.00 × 10^7 M^-1 in [8], 129.2 ± 54.1 × 10^7 M^-1 in assay [9] and 0.27 ± 0.02 × 10^7 M^-1 in assay [2]. The ΔTm in assay [10] is ~ 11 °C.
